From patent publication US5030760A, “Tetrahydrophthalimides, and their production and use” (Sumitomo Chemical Company, Ltd., priority 1981, dated 1991)

Legend:
barnyardgrass = test: Test Example 1, foliar treatment, herbicidal activity; assay type: in vivo, Echinochloa crus-galli; details: 3 weeks
Method in brief: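 Plants were sown in upland soil and grown 2 weeks in a greenhouse, then sprayed on the foliage with the compound as an emulsifiable concentrate dispersed in water with a spreading agent (5 liters per are). After 3 further weeks, aerial fresh weight relative to untreated (taken as 100) was converted to a rating.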

corn [1] = test: Test Example 2, field foliar treatment, phytotoxicity to corn; assay type: in vivo; details: 3 weeks
Experimental: (§1) The application of the tetrahydrophthalimides (I) as herbicides will be illustratively shown in the following Examples wherein the phytotoxicity to cultivated plants and the herbicidal activity on weeds were evaluated as follows: the aerial parts of the test plants were cut off and weighed (fresh weight); the percentage of the fresh weight of the treated plant to that of the untreated plant was calculated with the latter fresh weight taken as 100; and the crop damage and the herbicidal activity were evaluated by the standard given in the table below. The rating values of phytotoxicity, 0 and 1, and those of herbicidal effect, 5 and 4, are generally regarded as satisfactory to protect cultivated plants and control weeds, respectively. The rating values in the paddy field test alone were calculated from the dry weight of the test plants.
(§2) Seeds of corn and broad-leaved weeds such as cocklebur, common purslane and tall morningglory were sown in the field as previously laid up in ridges, each ridge having an upper width of 1 m. At the time when the corn grew up to the 6-leaf stage and the broad-leaved weeds up to 2 to 5-leaf stages, a designed amount of the test compound formulated into an emulsifiable concentrate according to Preparation Example 2 and dispersed in water was sprayed to the foliage of the test plants with three replications over the top by means of a small hand sprayer at a spray volume of 5 liters per are. After cultivation for 3 weeks, herbicidal activity and phytotoxicity were examined.

cocklebur = test: Test Example 2, field foliar treatment, herbicidal activity; assay type: in vivo, Xanthium pennsylvanicum; details: 3 weeks
Experimental: as §1, §2

tall morningglory [2] = test: as above; assay type: in vivo, Ipomoea purpurea; details: 3 weeks
Experimental: as §1, §2

corn [3] = test: Test Example 3, soil surface spraying, phytotoxicity to corn; assay type: in vivo; details: 20 days
Experimental: as §1
(§3) Plastic trays (35 cm×25 cm×15 cm) were filled with upland field soil, and the seeds of tall morningglory, velvetleaf and sicklepod and the seeds of corn were sown therein. A designed amount of the test compounds formulated into a wettable powder according to Preparation Example 1 was dispersed in water and applied by spraying at a spray volume of 5 liters per are to the whole surface of the soil. After the spraying, the test plants were placed in a greenhouse and grown for 20 days, and herbicidal activity and phytotoxicity were examined.

velvetleaf = test: Test Example 3, soil surface spraying, herbicidal activity; assay type: in vivo, Abutilon theophrasti; details: 20 days
Experimental: as §1, §3

corn [4] = test: Test Example 4, pre-emergence treatment, phytotoxicity to corn; assay type: in vivo; details: 20 days
Method in brief: (§4)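 Values are rating scores from shoot fresh weight versus untreated plants, taken 20 days after a pre-emergence spray of an emulsifiable concentrate onto sown upland soil.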

Johnsongrass = test: Test Example 4, pre-emergence treatment, herbicidal activity; assay type: in vivo, Sorghum halepense; details: 20 days
Method in brief: as §4

green foxtail [5] = test: as above; assay type: in vivo, Setaria viridis; details: 20 days
Method in brief: as §4

soybean = test: Test Example 5, spraying over the top, phytotoxicity to soybean; assay type: in vivo; details: sprayed over the top, 20 days
Experimental: as §1
(§5) Plastic trays (35 cm×25 cm×15 cm) were filled with upland field soil, and the seeds of tall morningglory, velvetleaf, jimsonweed, sicklepod, hemp sesbania, prickly side, Johnsongrass, green foxtail and large crabgrass and the seeds of soybean were sown therein. A designed amount of the test compound formulated into a wettable powder according to Preparation Example 1 and dispersed in water was sprayed over the top by means of a small hand sprayer at a spray volume of 5 liters per are. After the spraying, the test plants were grown in greenhouse for 20 days, and phytotoxicity and herbicidal activity were examined.

tall morningglory [6] = test: Test Example 5, spraying over the top, herbicidal activity; assay type: in vivo, Ipomoea purpurea; details: sprayed over the top, 20 days
Experimental: as §1, §5

jimsonweed = test: as above; assay type: in vivo, Datura stramonium; details: sprayed over the top, 20 days
Experimental: as §1, §5

hemp sesbania = test: as above; assay type: in vivo, Sesbania exaltator; details: sprayed over the top, 20 days
Experimental: as §1, §5

green foxtail [7] = test: as above; assay type: in vivo, Setaria viridis; details: sprayed over the top, 20 days
Experimental: as §1, §5

large crabgrass = test: as above; assay type: in vivo, Digitaria sanguinalis; details: sprayed over the top, 20 days
Experimental: as §1, §5

rice plant = test: Test Example 6, paddy pot perfusion, phytotoxicity to rice plant; assay type: in vivo; details: 3 weeks, dry weight
Experimental: as §1
(§6) Wagner's pots (1/5000 are) were filled with paddy field soil containing the seeds of broad-leaved weeds (e.g. monochoria, false pimpernel, toothcup) and the seeds of barnyardgrass and hardstem bulrush, and water was poured therein until the depth of water became 4 cm. Rice seedlings of the 3.5-leaf stage and the tubers of arrowhead were transplanted therein and grown for 2 days in a greenhouse. A designed amount of the test compound formulated in an emulsifiable concentrate according to Preparation Example 2 was applied to the pots by perfusion. Thereafter, the test plants were grown for an additional 3 weeks in the greenhouse, and herbicidal activity and phytotoxicity were examined. In this treatment, the emulsifiable concentrate was dispersed in water for application at a perfusion volume of 10 liters per are.

broad-leaved weed = test: Test Example 6, paddy pot perfusion, herbicidal activity; assay type: in vivo, monochoria, false pimpernel, toothcup; details: 3 weeks, dry weight
Experimental: as §1, §6

hardstem bulrush = test: as above; assay type: in vivo, Scirpus juncoides; details: 3 weeks, dry weight
Experimental: as §1, §6

arrowhead = test: as above; assay type: in vivo, Sagittaria pygmaea; details: 3 weeks, dry weight
Experimental: as §1, §6
Also: ranges in brackets are in %.

O=C1C2=C(CCCC2)C(=O)N1c1ccc(Cl)cc1F [A, 2-fluoro-4-chlorophenyltetrahydrophthalimide, reference compound]
Herbicidal activity, Barnyardgrass (barnyardgrass; 1.25 g/are): 1 (41-60)
Herbicidal activity, Barnyardgrass (barnyardgrass; 5 g/are): 3 (11-20)
Phytotoxicity, Corn (corn [1]; 0.63 g/are): 0 (100)
Phytotoxicity, Corn (corn [1]; 1.25 g/are): 1 (90-99)
Herbicidal activity, Cocklebur (cocklebur; 0.63 g/are): 1 (41-60)
Herbicidal activity, Cocklebur (cocklebur; 1.25 g/are): 4 (1-10)
Herbicidal activity, Tall morningglory (tall morningglory [2]; 0.63 g/are): 2 (21-40)
Herbicidal activity, Tall morningglory (tall morningglory [2]; 1.25 g/are): 2 (21-40)
Phytotoxicity, Corn (corn [3]; 5 g/are): 2 (80-89)
Phytotoxicity, Corn (corn [3]; 10 g/are): 3 (60-79)
Herbicidal activity, Velvetleaf (velvetleaf; 5 g/are): 3 (11-20)
Herbicidal activity, Velvetleaf (velvetleaf; 10 g/are): 4 (1-10)
Phytotoxicity, Corn (corn [4]; 2.5 g/are): 0 (100)
Phytotoxicity, Corn (corn [4]; 10 g/are): 2 (80-89)
Herbicidal activity, Johnsongrass (Johnsongrass; 2.5 g/are): 1 (41-60)
Herbicidal activity, Johnsongrass (Johnsongrass; 10 g/are): 3 (11-20)
Herbicidal activity, Green foxtail (green foxtail [5]; 2.5 g/are): 1 (41-60)
Herbicidal activity, Green foxtail (green foxtail [5]; 10 g/are): 4 (1-10)
Phytotoxicity, Soybean (soybean; 10 g/are): 1 (90-99)
Phytotoxicity, Soybean (soybean; 20 g/are): 2 (80-89)
Herbicidal activity, Tall morningglory (tall morningglory [6]; 10 g/are): 0 (61-100)
Herbicidal activity, Tall morningglory (tall morningglory [6]; 20 g/are): 1 (41-60)
Herbicidal activity, Jimsonweed (jimsonweed; 10 g/are): 4 (1-10)
Herbicidal activity, Jimsonweed (jimsonweed; 20 g/are): 5 (0)
Herbicidal activity, Hemp sesbania (hemp sesbania; 10 g/are): 3 (11-20)
Herbicidal activity, Hemp sesbania (hemp sesbania; 20 g/are): 5 (0)
Herbicidal activity, Green foxtail (green foxtail [7]; 10 g/are): 5 (0)
Herbicidal activity, Green foxtail (green foxtail [7]; 20 g/are): 5 (0)
Herbicidal activity, Large crabgrass (large crabgrass; 10 g/are): 5 (0)
Herbicidal activity, Large crabgrass (large crabgrass; 20 g/are): 5 (0)
Phytotoxicity, Rice plant (rice plant; 1.25 g/are): 0 (100)
Phytotoxicity, Rice plant (rice plant; 2.5 g/are): 1 (90-99)
Herbicidal activity, Broad-leaved weed (broad-leaved weed; 1.25 g/are): 5 (0)
Herbicidal activity, Broad-leaved weed (broad-leaved weed; 2.5 g/are): 5 (0)
Herbicidal activity, Hardstem bulrush (hardstem bulrush; 1.25 g/are): 2 (21-40)
Herbicidal activity, Hardstem bulrush (hardstem bulrush; 2.5 g/are): 3 (11-20)
Herbicidal activity, Arrowhead (arrowhead; 1.25 g/are): 0 (61-100)
Herbicidal activity, Arrowhead (arrowhead; 2.5 g/are): 0 (61-100)

CC(C)Oc1cc(N2C(=O)C3=C(CCCC3)C2=O)c(Cl)cc1Cl [B, 2,4-dichloro-5-isopropoxyphenyltetrahydrophthalimide, reference compound]
Herbicidal activity, Barnyardgrass (barnyardgrass; 1.25 g/are): 0 (61-100)
Herbicidal activity, Barnyardgrass (barnyardgrass; 5 g/are): 2 (21-40)
Phytotoxicity, Corn (corn [1]; 0.63 g/are): 1 (90-99)
Phytotoxicity, Corn (corn [1]; 1.25 g/are): 1 (90-99)
Herbicidal activity, Cocklebur (cocklebur; 0.63 g/are): 2 (21-40)
Herbicidal activity, Cocklebur (cocklebur; 1.25 g/are): 4 (1-10)
Herbicidal activity, Tall morningglory (tall morningglory [2]; 0.63 g/are): 3 (11-20)
Herbicidal activity, Tall morningglory (tall morningglory [2]; 1.25 g/are): 4 (1-10)
Phytotoxicity, Corn (corn [3]; 5 g/are): 0 (100)
Phytotoxicity, Corn (corn [3]; 10 g/are): 0 (100)
Herbicidal activity, Velvetleaf (velvetleaf; 5 g/are): 1 (41-60)
Herbicidal activity, Velvetleaf (velvetleaf; 10 g/are): 3 (11-20)
Phytotoxicity, Corn (corn [4]; 5 g/are): 0 (100)
Phytotoxicity, Corn (corn [4]; 20 g/are): 1 (90-99)
Herbicidal activity, Johnsongrass (Johnsongrass; 5 g/are): 1 (41-60)
Herbicidal activity, Johnsongrass (Johnsongrass; 20 g/are): 2 (21-40)
Herbicidal activity, Green foxtail (green foxtail [5]; 5 g/are): 0 (61-100)
Herbicidal activity, Green foxtail (green foxtail [5]; 20 g/are): 0 (61-100)
Phytotoxicity, Soybean (soybean; 10 g/are): 0 (100)
Phytotoxicity, Soybean (soybean; 20 g/are): 0 (100)
Herbicidal activity, Tall morningglory (tall morningglory [6]; 10 g/are): 0 (61-100)
Herbicidal activity, Tall morningglory (tall morningglory [6]; 20 g/are): 0 (61-100)
Herbicidal activity, Jimsonweed (jimsonweed; 10 g/are): 4 (1-10)
Herbicidal activity, Jimsonweed (jimsonweed; 20 g/are): 4 (1-10)
Herbicidal activity, Hemp sesbania (hemp sesbania; 10 g/are): 1 (41-60)
Herbicidal activity, Hemp sesbania (hemp sesbania; 20 g/are): 2 (21-40)
Herbicidal activity, Green foxtail (green foxtail [7]; 10 g/are): 3 (11-20)
Herbicidal activity, Green foxtail (green foxtail [7]; 20 g/are): 4 (1-10)
Herbicidal activity, Large crabgrass (large crabgrass; 10 g/are): 3 (11-20)
Herbicidal activity, Large crabgrass (large crabgrass; 20 g/are): 4 (1-10)
Phytotoxicity, Rice plant (rice plant; 1.25 g/are): 0 (100)
Phytotoxicity, Rice plant (rice plant; 2.5 g/are): 0 (100)
Herbicidal activity, Broad-leaved weed (broad-leaved weed; 1.25 g/are): 5 (0)
Herbicidal activity, Broad-leaved weed (broad-leaved weed; 2.5 g/are): 5 (0)
Herbicidal activity, Hardstem bulrush (hardstem bulrush; 1.25 g/are): 1 (41-60)
Herbicidal activity, Hardstem bulrush (hardstem bulrush; 2.5 g/are): 2 (21-40)
Herbicidal activity, Arrowhead (arrowhead; 1.25 g/are): 0 (61-100)
Herbicidal activity, Arrowhead (arrowhead; 2.5 g/are): 0 (61-100)
